The results in this text go back to ChEMBL document CHEMBL1201862, “PubChem BioAssay data set” (2004).

Among the test systems are A498; BT-549; DU-145; HL-60; IGROV-1; K562; LOX IMVI; MCF7; MDA-MB-435; MDA-N; Malme-3M; NCI-H226; NCI-H23; NCI/ADR-RES; OVCAR-3; SF-295; SF-539; SNB-75; SR; UACC-62.
Holding throughout (test): NCI tumour cell line growth inhibition, 48 h

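In this assay, cells in 96-well plates receive the compound at five concentrations for 48 hours. Endpoints are linearly interpolated between the surrounding concentrations. Here, GI50 denotes the concentration required for 50% inhibition of growth.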 Calls of active or inactive are those of the source. No stated cut-off is given here; in the data, active = GI50 up to about 1.1 µM and inactive = higher. Bounds are passed on as bounds.

As to `CC(CC[C@@]1(O)OC2C[C@H]3[C@@H]4CC[C@H]5CC(OC6OC(CO)C(OC7OC(CO)C(O)C(OC8OCC(O)C(O)C8O)C7OC7OC(CO)C(O)C(O)C7O)C(O)C6O)[C@H](O)CC5(C)[C@H]4CCC3(C)C2[C@@H]1C)COC1OC(CO)C(O)C(O)C1O` (stereo partly drawn), the GI50 was 18.9 µM (inactive) with A498; 1.76 µM (inactive) in the assay with BT-549; 3.09 µM (inactive) with DU-145; 6.9 µM (inactive) in the assay with HL-60; 11.3 µM (inactive) with IGROV-1; 16.6 µM (inactive) with K562. In addition, the GI50 with LOX IMVI is 8.97 µM (inactive); with MCF7 it was 8.71 µM (inactive); with MDA-MB-435, 14.8 µM (inactive); with MDA-N it was 15.4 µM (inactive); in the assay on Malme-3M, 15.2 µM (inactive); in the assay with NCI-H226, 13.5 µM (inactive). In addition, the GI50 is 2.8 µM (inactive) with NCI-H23; 6.65 µM (inactive) in the assay with NCI/ADR-RES; 3.46 µM (inactive) with OVCAR-3; 4.24 µM (inactive) in the assay on SF-295; 3.73 µM (inactive) with SF-539; 0.64 µM (active) with SNB-75. Besides, the GI50 in the assay on SR was 7.85 µM (inactive); in the assay with UACC-62 it was 16.4 µM (inactive).

`NC(=O)c1nnc2c(F)cccc2c1N`: the GI50 in the assay with A498 is > 100 µM (inactive); in the assay with BT-549, 58.9 µM (inactive); with DU-145, > 100 µM (inactive); with HL-60, > 100 µM (inactive); in the assay on IGROV-1, > 100 µM (inactive); in the assay on K562 it was 55.1 µM (inactive). The GI50 in the assay with LOX IMVI was 52 µM (inactive); in the assay on MCF7, 40 µM (inactive); in the assay with MDA-MB-435, 77.3 µM (inactive); in the assay on MDA-N, 66.5 µM (inactive); in the assay on Malme-3M it was > 100 µM (inactive); in the assay with NCI-H226, 46.6 µM (inactive). The GI50 with NCI-H23, in the assay on NCI/ADR-RES, with OVCAR-3, in the assay with SF-295, in the assay with SF-539 and in the assay on SNB-75 was > 100 µM (inactive) in each case. Also, the GI50 was > 100 µM (inactive) in the assay on SR and 73.8 µM (inactive) in the assay with UACC-62.

Consider `CC1OC(OC2C(O)COC(OC3C(C)OC(OC4C(OC(=O)[C@]56CCC(C)(C)C[C@@H]5C5=CCC7[C@@]8(C)C[C@H](O)[C@H](OC9OC(CO)C(O)C(OC%10OC(CO)C(O)C(O)C%10O)C9O)[C@@](C)(CO)[C@@H]8CC[C@@]7(C)[C@]5(C)CC6)OCC(O)C4O)C(O)C3OC3OCC(O)C(O)C3O)C2O)C(O)C(O)C1O` (stereo partly drawn), for which the GI50 with A498 was 2.15 µM (inactive); in the assay on BT-549 it was 9.57 µM (inactive); in the assay with DU-145 it was 7.1 µM (inactive); with HL-60, 3.72 µM (inactive); in the assay on IGROV-1, 6.12 µM (inactive); in the assay with K562, 16.7 µM (inactive). The GI50 in the assay with LOX IMVI was 13.2 µM (inactive); in the assay on MCF7, 17.3 µM (inactive); in the assay on MDA-MB-435, 2.66 µM (inactive); in the assay on MDA-N it was 2.87 µM (inactive); in the assay on Malme-3M, 10.1 µM (inactive); in the assay on NCI-H226, 7.82 µM (inactive). The GI50 is 4.04 µM (inactive) in the assay with NCI-H23; 10.9 µM (inactive) in the assay on NCI/ADR-RES; 11.4 µM (inactive) in the assay on OVCAR-3; 3.14 µM (inactive) in the assay on SF-295; 14.6 µM (inactive) in the assay with SF-539; 16 µM (inactive) in the assay with SNB-75. The results for the GI50 in the assay with SR and with UACC-62 were 7.08 µM (inactive) and 3.66 µM (inactive), respectively.

Turning to `COc1cc2c(cc1OC)CN1CCc3ccccc3CC1C2` (stereo not drawn), the GI50 was 43.3 µM (inactive) in the assay on A498; 31.3 µM (inactive) in the assay on BT-549; 37.6 µM (inactive) with DU-145; 27.2 µM (inactive) with HL-60; 17.5 µM (inactive) with IGROV-1; 32.9 µM (inactive) in the assay with K562. Also, the GI50 in the assay with LOX IMVI is 39 µM (inactive); with MCF7, 25.6 µM (inactive); with MDA-MB-435, 86.5 µM (inactive); in the assay on MDA-N, 44.1 µM (inactive); with Malme-3M it was 25.8 µM (inactive); in the assay on NCI-H226 it was 42.1 µM (inactive). The GI50 with NCI-H23 is 31.9 µM (inactive); in the assay on NCI/ADR-RES it was 54.7 µM (inactive); in the assay on OVCAR-3, 97.5 µM (inactive); in the assay on SF-295, 34.6 µM (inactive); in the assay with SF-539 it was 34.4 µM (inactive); with SNB-75, 29 µM (inactive). The GI50 is 0.208 µM (active) in the assay with SR and 23.6 µM (inactive) in the assay with UACC-62.

As to `O=C(O)Cc1cc(Cl)ccc1O`, the GI50 in the assay with A498, with BT-549, with DU-145, in the assay with HL-60, in the assay with IGROV-1 and in the assay on LOX IMVI was > 100 µM (inactive) in each case. Also, the GI50 with MCF7, in the assay on MDA-MB-435, in the assay with MDA-N, in the assay with Malme-3M, with NCI-H226 and in the assay on NCI-H23 was > 100 µM (inactive) each time. Further, the GI50 is > 100 µM (inactive) with NCI/ADR-RES; > 100 µM (inactive) in the assay with OVCAR-3; > 100 µM (inactive) in the assay with SF-295; > 100 µM (inactive) with SF-539; > 100 µM (inactive) in the assay with SNB-75; > 76.9 µM (inactive) in the assay on SR. Moreover, in the assay with UACC-62, the GI50 was > 100 µM (inactive).

Regarding `CC1(C)OC2C(=O)C=C(COCc3ccccc3)C2O1` (stereo not drawn), the GI50 is 56.6 µM (inactive) with A498; 15.6 µM (inactive) with BT-549; 44.6 µM (inactive) in the assay with DU-145; 11.2 µM (inactive) with HL-60; 19.8 µM (inactive) in the assay on IGROV-1; 23.6 µM (inactive) with K562. The GI50 was 25.6 µM (inactive) in the assay on LOX IMVI; 34 µM (inactive) in the assay with MCF7; 25.2 µM (inactive) in the assay with MDA-MB-435; 34.8 µM (inactive) with MDA-N; 19 µM (inactive) in the assay on Malme-3M; 22.9 µM (inactive) with NCI-H226. The GI50 in the assay with NCI-H23 was 19.2 µM (inactive); with NCI/ADR-RES it was 37.2 µM (inactive); in the assay on SF-295, 35.2 µM (inactive); in the assay on SF-539, 30 µM (inactive); in the assay on SNB-75 it was > 10 µM (inactive); in the assay on SR, 35.1 µM (inactive). Moreover, the GI50 in the assay with UACC-62 is 12.3 µM (inactive).

As for `COC1C(=O)CCC2(CO2)C1(O)C1(C)OC1CCC(C)C` (stereo not drawn), the GI50 is > 100 µM (inactive) with A498; > 100 µM (inactive) in the assay with BT-549; 5.6 µM (inactive) with DU-145; 42.8 µM (inactive) in the assay with HL-60; 48.1 µM (inactive) with IGROV-1; 32.5 µM (inactive) with K562. The GI50 is 54.8 µM (inactive) with MCF7; 61.1 µM (inactive) with MDA-MB-435; 29.4 µM (inactive) in the assay with MDA-N; 30.2 µM (inactive) with Malme-3M; > 100 µM (inactive) in the assay on NCI-H226; 22.6 µM (inactive) with NCI-H23. Moreover, the GI50 was > 100 µM (inactive) in the assay with NCI/ADR-RES; > 100 µM (inactive) in the assay with OVCAR-3; 13.6 µM (inactive) with SF-295; > 100 µM (inactive) in the assay with SF-539; > 100 µM (inactive) with SNB-75; > 100 µM (inactive) with SR. In addition, in the assay with UACC-62, the GI50 was 36.2 µM (inactive).

For `Cc1cn(C2CC(N=[N+]=[N-])C(C(=O)O)O2)c(=O)[nH]c1=O` (stereo not drawn), the GI50 in the assay on A498, in the assay with BT-549, in the assay with DU-145, in the assay on HL-60, in the assay with IGROV-1 and in the assay with K562 was > 100 µM (inactive) in each case. In addition, the GI50 in the assay on MCF7, in the assay on MDA-MB-435, in the assay with MDA-N, in the assay with Malme-3M, with NCI-H226 and with NCI-H23 was > 100 µM (inactive) in each case. In addition, the GI50 with NCI/ADR-RES, in the assay with OVCAR-3, in the assay with SF-539, in the assay with SNB-75, with SR and with UACC-62 was > 100 µM (inactive) throughout.

For `c1ccc(/N=C2\SC(c3ccccc3)CN2C23CC4CC(CC(C4)C2)C3)cc1` (stereo not drawn), the GI50 in the assay on A498, with BT-549, in the assay with DU-145, with HL-60, with IGROV-1 and in the assay on K562 was > 100 µM (inactive) throughout. Also, the GI50 in the assay with LOX IMVI, in the assay on MCF7, with MDA-MB-435, with MDA-N, in the assay on Malme-3M and in the assay on NCI-H226 was > 100 µM (inactive) in each case. The GI50 in the assay on NCI-H23, with NCI/ADR-RES, in the assay with OVCAR-3, in the assay on SF-295, in the assay with SF-539 and in the assay with SNB-75 was > 100 µM (inactive) in each case. The GI50 in the assay on SR is > 100 µM (inactive).

Regarding `O=C(Nc1cccc2ccccc12)c1cc2ccccc2oc1=O`, the GI50 in the assay with A498 is 47.9 µM (inactive); in the assay with BT-549 it was > 100 µM (inactive); with DU-145 it was > 100 µM (inactive); with HL-60, > 100 µM (inactive); in the assay with IGROV-1, 18.5 µM (inactive); in the assay with K562 it was > 100 µM (inactive). Also, the GI50 with LOX IMVI was > 100 µM (inactive); with MCF7, > 100 µM (inactive); in the assay on MDA-MB-435, > 100 µM (inactive); in the assay on MDA-N, > 100 µM (inactive); in the assay with Malme-3M, 12.5 µM (inactive); in the assay with NCI-H226, 21.8 µM (inactive). For the same molecule, the GI50 is 36.7 µM (inactive) in the assay with NCI-H23; 60.3 µM (inactive) in the assay with NCI/ADR-RES; 70.5 µM (inactive) in the assay with OVCAR-3; 14.6 µM (inactive) in the assay with SF-539; 30.6 µM (inactive) with SNB-75; > 100 µM (inactive) with SR. For the same molecule, the GI50 in the assay with UACC-62 was > 100 µM (inactive).
